In patent US11787785B2 (NOVARTIS AG, priority 2021, dated 2023):

Target: T1, WIZ protein (HiBit-WIZ fusion protein) (Homo sapiens, UniProt O95785+Q96SW2)
T1 construct: expressed in transfected cells
Assay: Quantification of WIZ protein levels in HiBit tag fusion protein assay (WIZ HiBit assay in 293T cells)
Assay type: cell-based
Parameters: remaining activity / Dmax: dose or concentration left out as unconfirmed
Conditions: for DC50: WIZ HiBit assay in 293T cells, 10-point, 5-fold dose response, highest concentration 25 μM, about 18 hours, read-out: WIZ AC50
How it was run: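 Luminescence after LgBit complementation quantified remaining HiBit-WIZ in lysates of single-copy stable 293T lines. Cells dosed ~18 h at 37 °C with 10-point, 5-fold dilutions (highest 25 μM); DMSO set to 100%, fitted curve gave % remaining at 25 μM (Amax).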

[1] = HEK-293T, 100 − Amax, at 25 uM, 293T cells, read-out: % degradation of WIZ (100 − Amax)
[2] = HEK-293T, DMSO-normalized, curve-fitted percentage of WIZ-HiBit remaining at 25 uM, 293T cells, read-out: WIZ Amax

T1 sequence (O95785 whole entry, the tested form may be a part): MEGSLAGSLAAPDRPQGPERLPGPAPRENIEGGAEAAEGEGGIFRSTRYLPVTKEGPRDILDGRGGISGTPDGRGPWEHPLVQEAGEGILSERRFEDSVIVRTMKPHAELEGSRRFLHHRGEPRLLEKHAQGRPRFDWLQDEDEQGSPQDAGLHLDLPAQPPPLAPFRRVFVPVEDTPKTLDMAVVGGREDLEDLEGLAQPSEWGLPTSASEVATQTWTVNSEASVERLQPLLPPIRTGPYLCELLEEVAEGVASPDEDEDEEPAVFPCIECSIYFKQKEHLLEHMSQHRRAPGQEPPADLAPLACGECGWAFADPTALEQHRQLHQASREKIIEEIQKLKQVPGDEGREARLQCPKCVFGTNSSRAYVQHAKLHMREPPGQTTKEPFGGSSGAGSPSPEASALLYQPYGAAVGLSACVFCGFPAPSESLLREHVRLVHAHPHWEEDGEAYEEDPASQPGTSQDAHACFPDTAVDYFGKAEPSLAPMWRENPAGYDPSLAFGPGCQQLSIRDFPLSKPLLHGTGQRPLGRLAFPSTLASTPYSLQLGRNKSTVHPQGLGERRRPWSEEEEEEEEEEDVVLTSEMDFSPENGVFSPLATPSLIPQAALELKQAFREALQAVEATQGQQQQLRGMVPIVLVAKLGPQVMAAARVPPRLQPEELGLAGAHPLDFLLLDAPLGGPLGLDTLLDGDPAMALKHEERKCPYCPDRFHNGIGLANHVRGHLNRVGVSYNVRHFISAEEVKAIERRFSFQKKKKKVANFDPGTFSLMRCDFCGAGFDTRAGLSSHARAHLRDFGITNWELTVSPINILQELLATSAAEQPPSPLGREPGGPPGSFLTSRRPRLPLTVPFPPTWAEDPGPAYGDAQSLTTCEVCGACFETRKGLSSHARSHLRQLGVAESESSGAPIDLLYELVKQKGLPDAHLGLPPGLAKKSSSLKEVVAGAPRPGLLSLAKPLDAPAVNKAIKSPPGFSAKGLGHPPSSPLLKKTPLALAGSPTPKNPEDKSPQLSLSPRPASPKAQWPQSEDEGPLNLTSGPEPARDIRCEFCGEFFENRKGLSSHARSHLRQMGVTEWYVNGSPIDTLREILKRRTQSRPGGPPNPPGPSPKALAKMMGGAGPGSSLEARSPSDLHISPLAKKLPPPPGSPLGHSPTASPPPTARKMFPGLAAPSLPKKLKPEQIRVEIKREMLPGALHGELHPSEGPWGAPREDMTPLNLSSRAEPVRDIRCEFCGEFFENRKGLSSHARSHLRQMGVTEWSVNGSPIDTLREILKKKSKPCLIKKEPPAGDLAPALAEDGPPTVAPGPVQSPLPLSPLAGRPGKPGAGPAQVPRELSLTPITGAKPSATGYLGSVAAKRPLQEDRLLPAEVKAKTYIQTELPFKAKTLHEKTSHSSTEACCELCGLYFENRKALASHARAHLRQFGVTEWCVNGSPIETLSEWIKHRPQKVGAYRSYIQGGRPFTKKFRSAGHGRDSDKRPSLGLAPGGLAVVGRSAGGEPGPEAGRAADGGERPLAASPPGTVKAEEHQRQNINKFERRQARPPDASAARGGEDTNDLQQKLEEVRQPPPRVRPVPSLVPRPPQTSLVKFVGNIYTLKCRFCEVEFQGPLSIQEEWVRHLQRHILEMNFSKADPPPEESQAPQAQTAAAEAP
T1 sequence (Q96SW2 whole entry, the tested form may be a part): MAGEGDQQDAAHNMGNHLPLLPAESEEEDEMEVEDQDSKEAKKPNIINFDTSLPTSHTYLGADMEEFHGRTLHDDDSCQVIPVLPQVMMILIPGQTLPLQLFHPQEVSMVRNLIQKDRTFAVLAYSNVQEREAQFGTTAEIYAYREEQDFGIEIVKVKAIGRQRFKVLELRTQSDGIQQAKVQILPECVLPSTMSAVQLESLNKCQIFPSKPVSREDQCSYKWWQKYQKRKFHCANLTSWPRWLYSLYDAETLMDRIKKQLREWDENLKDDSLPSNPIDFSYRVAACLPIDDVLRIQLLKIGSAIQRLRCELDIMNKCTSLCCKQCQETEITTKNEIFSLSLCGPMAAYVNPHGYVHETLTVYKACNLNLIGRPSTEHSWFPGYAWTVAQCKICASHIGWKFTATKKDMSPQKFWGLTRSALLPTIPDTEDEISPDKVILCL
T1 sequence (Q16531 whole entry partner, the tested form may be a part): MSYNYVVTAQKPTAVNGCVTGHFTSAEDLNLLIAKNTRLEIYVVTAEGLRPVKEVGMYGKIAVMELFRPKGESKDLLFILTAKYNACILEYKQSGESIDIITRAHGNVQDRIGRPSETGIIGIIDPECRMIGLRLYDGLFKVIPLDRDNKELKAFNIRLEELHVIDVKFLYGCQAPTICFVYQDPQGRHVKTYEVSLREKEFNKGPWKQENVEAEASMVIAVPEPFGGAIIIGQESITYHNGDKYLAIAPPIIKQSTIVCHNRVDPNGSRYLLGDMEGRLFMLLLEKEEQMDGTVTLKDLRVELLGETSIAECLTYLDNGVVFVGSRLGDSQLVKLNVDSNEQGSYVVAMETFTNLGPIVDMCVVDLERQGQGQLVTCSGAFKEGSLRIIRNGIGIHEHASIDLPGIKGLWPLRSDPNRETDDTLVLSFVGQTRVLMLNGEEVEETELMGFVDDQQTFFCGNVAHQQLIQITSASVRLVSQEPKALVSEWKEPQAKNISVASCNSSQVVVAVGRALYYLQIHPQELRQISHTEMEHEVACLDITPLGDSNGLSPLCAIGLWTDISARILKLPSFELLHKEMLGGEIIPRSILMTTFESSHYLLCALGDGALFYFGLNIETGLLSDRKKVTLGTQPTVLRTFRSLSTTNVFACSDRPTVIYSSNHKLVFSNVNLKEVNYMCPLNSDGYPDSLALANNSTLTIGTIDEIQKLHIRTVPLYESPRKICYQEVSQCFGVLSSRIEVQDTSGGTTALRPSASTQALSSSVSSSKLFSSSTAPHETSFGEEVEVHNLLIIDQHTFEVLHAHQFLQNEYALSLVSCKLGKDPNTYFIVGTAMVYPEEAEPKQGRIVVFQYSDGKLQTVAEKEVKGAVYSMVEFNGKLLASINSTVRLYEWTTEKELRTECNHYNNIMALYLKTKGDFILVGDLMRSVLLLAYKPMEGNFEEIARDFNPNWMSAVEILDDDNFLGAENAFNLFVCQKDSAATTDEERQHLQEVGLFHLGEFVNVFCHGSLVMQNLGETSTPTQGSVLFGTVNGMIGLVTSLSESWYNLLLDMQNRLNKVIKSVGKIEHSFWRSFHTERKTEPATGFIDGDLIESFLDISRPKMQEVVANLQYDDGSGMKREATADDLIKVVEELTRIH

Compound | Dmax at 25 µM [1] [%] | remaining activity at 25 µM [2] [%] | DC50 [nM] | Dmax (HEK-293T, read-out: % degradation of WIZ (100 − Amax)) [%] | remaining activity (HEK-293T, read-out: WIZ Amax) [%] | % degradation of WIZ (100 − Amax) (100 − Amax, at 25 uM, 293T cells) [%] | WIZ Amax (DMSO-normalized, curve-fitted percentage of WIZ-HiBit remaining at 25 uM, 293T cells) [%]
O=C1CCN(c2cnn3ccc(CC4CCN(CCC5CCCCC5)CC4)cc23)C(=O)N1 [Example 6, 1-(5-((1-(2-cyclohexylethyl)piperidin-4-yl)methyl)pyrazolo[1,5-a]pyridin-3-yl)dihydropyrimidine-2,4(1H,3H)-dione] | 89 | 11 | 13 | – | – | – | –
CC(C)S(=O)(=O)N1CCC(Cc2ccn3ncc(N4CCC(=O)NC4=O)c3c2)CC1 [Example 85] | 83 | 17 | 38 | – | – | – | –
O=C1CCN(c2cnn3ccc(CN4CCN(CCC5CCCCC5)CC4)cc23)C(=O)N1 [Example 187, 1-(5-((4-(2-cyclohexylethyl)piperazin-1-yl)methyl)pyrazolo[1,5-a]pyridin-3-yl)dihydropyrimidine-2,4(1H,3H)-dione] | 80 | 20 | 20 | – | – | – | –
O=C1CCN(c2cnn3ccc(CN4CCN(CC(F)(F)C(F)F)CC4)cc23)C(=O)N1 [Example 173] | 42 | 58 | 771 | – | – | – | –
C[C@H]1C[C@H](Cc2ccn3ncc(N4CCC(=O)NC4=O)c3c2)CCN1S(=O)(=O)NC1CCCC1 [Example 293] | 76 | 24 | 65 | – | – | – | –
O=C1CCN(c2cnn3ccc(CN4CCN5CCC[C@@H]5C4)cc23)C(=O)N1 [Example 261, (R)-1-(5-((hexahydropyrrolo[1,2-a]pyrazin-2(1H)-yl)methyl)pyrazolo[1,5-a]pyridin-3-yl)dihydropyrimidine-2,4(1H,3H)-dione] | 63 | 37 | 417 | – | – | – | –
O=C1CCN(c2cnn3ccc(CC4CCNCC4)cc23)C(=O)N1 [Example 108, 1-(5-(piperidin-4-ylmethyl)pyrazolo[1,5-a]pyridin-3-yl)dihydropyrimidine-2,4(1H,3H)-dione] | 34 | 66 | 1340 | – | – | – | –
CC(C)CN1CC[C@H](Cc2ccn3ncc(N4CCC(=O)NC4=O)c3c2)C[C@H]1C [Example 153] | 86 | 14 | 14 | – | – | – | –
O=C1CCN(c2cnn3ccc(CC4CCN(CC5CCCCC5)C4)cc23)C(=O)N1 (stereo not drawn) [Example 128] | 29 | 71 | 830 | – | – | – | –
Cc1ccccc1CN1CCN(Cc2ccn3ncc(N4CCC(=O)NC4=O)c3c2)CC1 [Example 167] | 57 | 43 | 286 | – | – | – | –
O=C1CCN(c2cnn3ccc(CC4CCN(Cc5ccccn5)CC4)cc23)C(=O)N1 [Example 111] | 56 | 44 | 304 | – | – | – | –
O=C1CCN(c2cnn3ccc(CC4CCN(Cc5ccccc5)CC4)cc23)C(=O)N1 [Example 29, 1-(5-((1-benzylpiperidin-4-yl)methyl)pyrazolo[1,5-a]pyridin-3-yl)dihydropyrimidine-2,4(1H,3H)-dione] | 74 | 26 | 232 | – | – | – | –
O=C1CCN(c2cnn3ccc(CC4CCN(CC5CCOCC5)CC4)cc23)C(=O)N1 [Example 3, 1-(5-((1-((tetrahydro-2H-pyran-4-yl)methyl)piperidin-4-yl)methyl)pyrazolo[1,5-a]pyridin-3-yl)dihydropyrimidine-2,4(1H,3H)-dione] | 90 | 10 | 20 | – | – | – | –
O=C1CCN(c2cnn3ccc(CC4CCN(Cc5ccc(F)cc5F)CC4)cc23)C(=O)N1 [Example 50, 1-(5-((1-(2,4-difluorobenzyl)piperidin-4-yl)methyl)pyrazolo[1,5-a]pyridin-3-yl)dihydropyrimidine-2,4(1H,3H)-dione] | 66 | 34 | 113 | – | – | – | –
COC[C@H]1CN(Cc2ccn3ncc(N4CCC(=O)NC4=O)c3c2)CCN1CC1CCCCC1 [Example 244, (R)-1-(5-((4-(cyclohexylmethyl)-3-(methoxymethyl)piperazin-1-yl)methyl)pyrazolo[1,5-a]pyridin-3-yl)dihydropyrimidine-2,4(1H,3H)-dione] | 53 | 47 | 1180 | – | – | – | –
CC(c1cccnc1)N1CCN(Cc2ccn3ncc(N4CCC(=O)NC4=O)c3c2)CC1 (stereo not drawn) [Example 175] | 40 | 60 | 1240 | – | – | – | –
CC(C)C(=O)N1CCN(Cc2ccn3ncc(N4CCC(=O)NC4=O)c3c2)C[C@@H]1C [Example 341, (S)-1-(5-((4-isobutyryl-3-methylpiperazin-1-yl)methyl)pyrazolo[1,5-a]pyridin-3-yl)dihydropyrimidine-2,4(1H,3H)-dione] | 30 | 70 | 799 | – | – | – | –
O=C1CCN(c2cnn3ccc(CC4(F)CCN(CC5CCCCC5)CC4)cc23)C(=O)N1 [Example 123, 1-(5-((1-(cyclohexylmethyl)-4-fluoropiperidin-4-yl)methyl)pyrazolo[1,5-a]pyridin-3-yl)dihydropyrimidine-2,4(1H,3H)-dione] | 68 | 32 | 95 | – | – | – | –
O=C1CCN(c2cnn3ccc(CN4C[C@H]5C[C@@H]4CN5Cc4cccnc4)cc23)C(=O)N1 [Example 235, 1-(5-(((1R,4R)-5-(pyridin-3-ylmethyl)-2,5-diazabicyclo[2.2.1]heptan-2-yl)methyl)pyrazolo[1,5-a]pyridin-3-yl)dihydropyrimidine-2,4(1H,3H)-dione] | 35 | 65 | 3280 | – | – | – | –
COc1ccnc(N2CCC(Cc3ccn4ncc(N5CCC(=O)NC5=O)c4c3)CC2)n1 [Example 69, 1-(5-((1-(4-methoxypyrimidin-2-yl)piperidin-4-yl)methyl)pyrazolo[1,5-a]pyridin-3-yl)dihydropyrimidine-2,4(1H,3H)-dione] | – | – | 350 | 35 | 65 | – | –
O=C1CCN(c2cnn3ccc(CC4CCN(Cc5ccc(OC(F)(F)F)cc5)CC4)cc23)C(=O)N1 [Example 56, 1-(5-((1-(4-(trifluoromethoxy)benzyl)piperidin-4-yl)methyl)pyrazolo[1,5-a]pyridin-3-yl)dihydropyrimidine-2,4(1H,3H)-dione] | 63 | 37 | 204 | – | – | – | –
O=C1CCN(c2cnn3ccc(CC4CCN(CC(F)(F)C(F)F)CC4)cc23)C(=O)N1 [Example 31, 1-(5-((1-(2,2,3,3-tetrafluoropropyl)piperidin-4-yl)methyl)pyrazolo[1,5-a]pyridin-3-yl)dihydropyrimidine-2,4(1H,3H)-dione] | 74 | 26 | 27 | – | – | – | –
C[C@H]1CC(F)(Cc2ccn3ncc(N4CCC(=O)NC4=O)c3c2)CCN1C1COC1 (single isomer, unassigned) [Example 311] | – | – | 310 | – | – | 78 | 22
C[C@H]1CN(Cc2ccn3ncc(N4CCC(=O)NC4=O)c3c2)CCN1C[C@H]1CC[C@H](C(F)(F)F)CC1 [Example 323, 1-(5-(((S)-3-methyl-4-(((1r,4S)-4-(trifluoromethyl)cyclohexyl)methyl)piperazin-1-yl)methyl)pyrazolo[1,5-a]pyridin-3-yl)dihydropyrimidine-2,4(1H,3H)-dione] | 83 | 17 | 4 | – | – | – | –
CC(C)CN1[C@@H](C)CN(Cc2ccn3ncc(N4CCC(=O)NC4=O)c3c2)C[C@@H]1C [Example 259, 1-(5-(((3S,5S)-4-isobutyl-3,5-dimethylpiperazin-1-yl)methyl)pyrazolo[1,5-a]pyridin-3-yl)dihydropyrimidine-2,4(1H,3H)-dione] | 61 | 39 | 258 | – | – | – | –
O=C1CCN(c2cnn3ccc(CN4CCN(CC5(C(F)(F)F)CC5)CC4)cc23)C(=O)N1 [Example 172] | 42 | 58 | 527 | – | – | – | –
O=C1CCN(c2cnn3ccc(CC4CCN(Cc5ccc(C(F)(F)F)nc5)CC4)cc23)C(=O)N1 [Example 54, 1-(5-((1-((6-(trifluoromethyl)pyridin-3-yl)methyl)piperidin-4-yl)methyl)pyrazolo[1,5-a]pyridin-3-yl)dihydropyrimidine-2,4(1H,3H)-dione] | 64 | 36 | 44 | – | – | – | –
CC(C)CN1CCN(C(C)c2ccn3ncc(N4CCC(=O)NC4=O)c3c2)CC1 (stereo not drawn) [Example 345, 1-(5-(1-(4-isobutylpiperazin-1-yl)ethyl)pyrazolo[1,5-a]pyridin-3-yl)dihydropyrimidine-2,4(1H,3H)-dione] | 73 | 27 | 191 | – | – | – | –
COCCN1CCC(Cc2ccn3ncc(N4CCC(=O)NC4=O)c3c2)CC1 [Example 34, 1-(5-((1-(2-methoxyethyl)piperidin-4-yl)methyl)pyrazolo[1,5-a]pyridin-3-yl)dihydropyrimidine-2,4(1H,3H)-dione] | 73 | 27 | 945 | – | – | – | –
CCN1CCC(Cc2ccn3ncc(N4CCC(=O)NC4=O)c3c2)CC1 [Example 24, 1-(5-((1-ethylpiperidin-4-yl)methyl)pyrazolo[1,5-a]pyridin-3-yl)dihydropyrimidine-2,4(1H,3H)-dione] | 77 | 23 | 1080 | – | – | – | –
